Laboratory results: patent US20060069132A1, “Azolecarboxamide herbicides” (priority 2004, published 2006)

Experiments:
[1] = system: barnyardgrass; test: Test A pre-/postemergence herbicide test; assay type: in vivo, Echinochloa crus-galli
Outline: (§1)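 Pre: seeded sandy loam, directed soil spray, compound in non-phytotoxic solvent + surfactant. Post: 1–2-leaf plants (2–10 cm), sprayed to runoff. Greenhouse ~10 d; visual injury vs untreated, 0–100 scale.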

[2] = system: large crabgrass; test: Test A pre-/postemergence herbicide test; assay type: in vivo, Digitaria sanguinalis
Outline: as §1

[3] = system: giant foxtail; test: Test A pre-/postemergence herbicide test; assay type: in vivo, Setaria faberi
Outline: as §1

[4] = system: morningglory; test: Test A pre-/postemergence herbicide test; assay type: in vivo, Ipomoea spp.
Outline: as §1

[5] = system: redroot pigweed; test: Test A pre-/postemergence herbicide test; assay type: in vivo, Amaranthus retroflexus
Outline: as §1

[6] = system: velvetleaf; test: Test A pre-/postemergence herbicide test; assay type: in vivo, Abutilon theophrasti
Outline: as §1

[7] = system: barnyardgrass; test: Test B pre-/postemergence herbicide test; assay type: in vivo, Echinochloa crus-galli; details: for Plant response rating, Barnyardgrass: preemergence; for Barnyardgrass plant response rating: postemergence, visual rating, scale 0 (no effect) to 100 (complete control)
Outline: (§2)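 Evaluation is visual, comparing treated with control plants on a scale where 0 means no effect and 100 means full control. Treatments were preemergence, or postemergence on seedlings 2–18 cm tall, and held 13–15 days in the greenhouse.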

[8] = system: Surinam grass; test: Test B pre-/postemergence herbicide test; assay type: in vivo, Urochloa decumbens; details: for Plant response rating, Surinam Grass: preemergence; for Surinam Grass plant response rating: postemergence, visual rating, scale 0 (no effect) to 100 (complete control)
Outline: (§3)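 Test chemicals in a non-phytotoxic solvent mixture with surfactant were applied preemergence to seeded species and postemergence to plants 2-18 cm tall (1- to 4-leaf stage); rice and barnyardgrass were also tested in a flooded paddy at the 2-leaf stage. Visual rating versus controls after 13-15 days in greenhouse, scale 0 (no effect) to 100 (complete control).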

[9] = system: cocklebur; test: Test B pre-/postemergence herbicide test; assay type: in vivo, Xanthium strumarium; details: for Plant response rating, Cocklebur: preemergence; for Cocklebur plant response rating: postemergence, visual rating, scale 0 (no effect) to 100 (complete control)
Outline: as §2

[10] = system: corn; test: Test B pre-/postemergence herbicide test; assay type: in vivo, Zea mays; details: for Plant response rating, Corn: preemergence; for Corn plant response rating: postemergence, visual rating, scale 0 (no effect) to 100 (complete control)
Outline: as §3

[11] = system: large crabgrass; test: Test B pre-/postemergence herbicide test; assay type: in vivo, Digitaria sanguinalis; details: for Plant response rating, Crabgrass, Large: preemergence; for Crabgrass, Large plant response rating: postemergence, visual rating, scale 0 (no effect) to 100 (complete control)
Outline: as §3

[12] = system: giant foxtail; test: Test B pre-/postemergence herbicide test; assay type: in vivo, Setaria faberi; details: for Plant response rating, Foxtail, Giant: preemergence; for Foxtail, Giant plant response rating: postemergence, visual rating, scale 0 (no effect) to 100 (complete control)
Outline: as §3

[13] = system: lambsquarters; test: Test B pre-/postemergence herbicide test; assay type: in vivo, Chenopodium album; details: for Plant response rating, Lambsquarters: preemergence; for Lambsquarters plant response rating: postemergence, visual rating, scale 0 (no effect) to 100 (complete control)
Outline: as §3

[14] = system: morningglory; test: Test B pre-/postemergence herbicide test; assay type: in vivo, Ipomoea coccinea; details: for Plant response rating, Morningglory: preemergence; for Morningglory plant response rating: postemergence, visual rating, scale 0 (no effect) to 100 (complete control)
Outline: as §2

[15] = system: pigweed; test: Test B pre-/postemergence herbicide test; assay type: in vivo, Amaranthus retroflexus; details: for Plant response rating, Pigweed: preemergence; for Pigweed plant response rating: postemergence, visual rating, scale 0 (no effect) to 100 (complete control)
Outline: as §3

[16] = system: rice; test: Test B pre-/postemergence herbicide test; assay type: in vivo, Oryza sativa; details: preemergence
Outline: as §3

[17] = system: velvetleaf; test: Test B pre-/postemergence herbicide test; assay type: in vivo, Abutilon theophrasti; details: for Plant response rating, Velvetleaf: preemergence; for Velvetleaf plant response rating: postemergence, visual rating, scale 0 (no effect) to 100 (complete control)
Outline: as §3

[18] = system: blackgrass; test: Test B postemergence herbicide test; assay type: in vivo, Alopecurus myosuroides; details: postemergence, visual rating, scale 0 (no effect) to 100 (complete control)
Outline: (§4)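 Each value is a visual 0–100 response rating taken against controls 13 to 15 days after treatment in the greenhouse. Plants received formulated chemical postemergence at the 1- to 4-leaf stage or, in flooded paddy, at the 2-leaf stage.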

[19] = system: wheat; test: Test B postemergence herbicide test; assay type: in vivo, Triticum aestivum; set-up: key to Wheat plant response rating: 0 = no effect, 100 = complete control; details: postemergence, 500 g ai/ha; visual rating, scale 0 (no effect) to 100 (complete control)
Outline: (§5)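 Read-out: visual comparison with controls, scored 0 to 100, where 100 means complete control and 0 no effect. Formulated chemicals were applied postemergence to plants 2–18 cm tall (1- to 4-leaf), or to flooded-paddy plants at the 2-leaf stage, then held 13 to 15 days under glass.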

[20] = system: wild oat; test: Test B postemergence herbicide test; assay type: in vivo, Avena fatua; details: postemergence, visual rating, scale 0 (no effect) to 100 (complete control)
Outline: as §5

[21] = system: rice; test: Test B flooded paddy test; assay type: in vivo, Oryza sativa; details: 1000 g ai/ha, visual rating, scale 0 to 100 (0 no effect, 100 complete control), 13 to 15 days
Outline: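 Paddy species grown to the 2-leaf stage under flooding; blackgrass sprayed postemergence at 2–18 cm (1- to 4-leaf stage). Plants kept in a greenhouse for 13 to 15 days, then visually rated against controls on 0 (no effect) to 100 (complete control).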

[22] = system: small flower umbrella sedge; test: Test B flooded paddy test; assay type: in vivo, Cyperus difformis; details: 1000 g ai/ha, visual rating, scale 0 to 100 (0 no effect, 100 complete control), 13 to 15 days
Outline: as §4

[23] = system: ducksalad; test: Test B flooded paddy test; assay type: in vivo, Heteranthera limosa; details: 1000 g ai/ha, visual rating, scale 0 to 100 (0 no effect, 100 complete control), 13 to 15 days
Outline: as §4

[24] = system: barnyardgrass; test: Test B flooded paddy test; assay type: in vivo, Echinochloa crus-galli; details: 1000 g ai/ha, visual rating, scale 0 to 100 (0 no effect, 100 complete control), 13 to 15 days
Outline: as §4

[25] = Postemergence, 500 g ai/ha, 0 to 100 scale, 0 no effect, 100 complete control
[26] = Postemergence, 2000 g ai/ha, 0 to 100 scale, 0 no effect, 100 complete control
[27] = Preemergence, 500 g ai/ha, visual rating, 0 to 100 scale (0 no effect, 100 complete control)
[28] = Preemergence, 2000 g ai/ha, visual rating, 0 to 100 scale (0 no effect, 100 complete control)
[29] = preemergence, 500 g ai/ha, visual injury, 0 to 100 scale (0 no effect, 100 complete control)
[30] = 500 g ai/ha, visual rating 0-100, 0 no effect, 100 complete control
[31] = 125 g ai/ha, 0 to 100 scale, 0 is no effect, 100 is complete control

CCNC(=O)c1cc(C)cc(NC(=O)c2cc(C(C)(C)C)nn2CC)n1 [Compound 150]
Barnyardgrass plant response rating [1, 25]: 30 | Plant response rating, Barnyardgrass [1, 26]: 65 | Barnyardgrass plant response rating [1, 27]: 50 | Barnyardgrass plant response rating [1, 28]: 80 | Crabgrass, Large plant response rating [2, 25]: 15 | Plant response rating, Crabgrass, Large [2, 26]: 50 | Crabgrass, Large plant response rating [2, 27]: 25 | Crabgrass, Large plant response rating [2, 28]: 50 | Foxtail, Giant plant response rating [3, 25]: 20 | Plant response rating, Foxtail, Giant [3, 26]: 25 | Foxtail, Giant plant response rating [3, 27]: 15 | Foxtail, Giant plant response rating [3, 28]: 55 | Morningglory plant response rating [4, 25]: 0 | Plant response rating, Morningglory [4, 26]: 10 | Morningglory plant response rating [4, 27]: 10 | Morningglory plant response rating [4, 28]: 35 | Pigweed plant response rating [5, 25]: 80 | Plant response rating, Pigweed [5, 26]: 75 | Pigweed plant response rating [5, 28]: 100 | Pigweed plant response rating [5, 29]: 75 | Velvetleaf plant response rating [6, 25]: 25 | Plant response rating, Velvetleaf [6, 26]: 15 | Velvetleaf plant response rating [6, 28]: 50 | Velvetleaf plant response rating [6, 29]: 20 | Plant response rating, Barnyardgrass [7, 30]: 80 | Barnyardgrass plant response rating ([7]; 125 g ai/ha): 10 | Barnyardgrass plant response rating ([7]; 500 g ai/ha): 50 | Plant response rating, Barnyardgrass [7, 31]: 30 | Plant response rating, Surinam Grass [8, 30]: 10 | Surinam Grass plant response rating ([8]; 125 g ai/ha): 10 | Surinam Grass plant response rating ([8]; 500 g ai/ha): 40 | Plant response rating, Surinam Grass [8, 31]: 10 | Plant response rating, Cocklebur [9, 30]: 0 | Cocklebur plant response rating ([9]; 125 g ai/ha): 60 | Cocklebur plant response rating ([9]; 500 g ai/ha): 80 | Plant response rating, Cocklebur [9, 31]: 0 | Plant response rating, Corn [10, 30]: 20 | Corn plant response rating ([10]; 125 g ai/ha): 10 | Corn plant response rating ([10]; 500 g ai/ha): 50 | Plant response rating, Corn [10, 31]: 0 | Plant response rating, Crabgrass, Large [11, 30]: 10 | Crabgrass, Large plant response rating ([11]; 125 g ai/ha): 10 | Crabgrass, Large plant response rating ([11]; 500 g ai/ha): 10 | Plant response rating, Crabgrass, Large [11, 31]: 0 | Plant response rating, Foxtail, Giant [12, 30]: 60 | Foxtail, Giant plant response rating ([12]; 125 g ai/ha): 0 | Foxtail, Giant plant response rating ([12]; 500 g ai/ha): 10 | Plant response rating, Foxtail, Giant [12, 31]: 0 | Plant response rating, Lambsquarters [13, 30]: 100 | Lambsquarters plant response rating ([13]; 125 g ai/ha): 50 | Lambsquarters plant response rating ([13]; 500 g ai/ha): 70 | Plant response rating, Lambsquarters [13, 31]: 0 | Plant response rating, Morningglory [14, 30]: 20 | Morningglory plant response rating ([14]; 125 g ai/ha): 20 | Morningglory plant response rating ([14]; 500 g ai/ha): 40 | Plant response rating, Morningglory [14, 31]: 0 | Plant response rating, Pigweed [15, 30]: 100 | Pigweed plant response rating ([15]; 125 g ai/ha): 70 | Pigweed plant response rating ([15]; 500 g ai/ha): 90 | Plant response rating, Pigweed [15, 31]: 70 | Plant response rating, Rice [16, 30]: 40 | Plant response rating, Rice [16, 31]: 0 | Plant response rating, Velvetleaf [17, 30]: 10 | Velvetleaf plant response rating ([17]; 125 g ai/ha): 20 | Velvetleaf plant response rating ([17]; 500 g ai/ha): 60 | Plant response rating, Velvetleaf [17, 31]: 0 | Blackgrass plant response rating ([18]; 125 g ai/ha): 0 | Blackgrass plant response rating ([18]; 500 g ai/ha): 10 | Wheat plant response rating [19]: 10 | Oat, Wild plant response rating ([20]; 125 g ai/ha): 20 | Oat, Wild plant response rating ([20]; 500 g ai/ha): 20 | Rice plant response rating [21]: 40 | Sedge, Umbrella plant response rating [22]: 50 | Ducksalad plant response rating [23]: 20 | Barnyardgrass plant response rating [24]: 70
